# Reference: patent US12660819B2, “Herbicidal derivatives” (SYNGENTA CROP PROTECTION AG, priority 2020, dated 2026)
# Experiments:
# Format in all cases: in vivo
# [1] = test system: Amaranthus retoflexus (AMARE); experiment: Post-emergence Test (glasshouse, percentage damage to the plant); conditions: post-emergence spray, 1000 g/ha unless otherwise stated, evaluated after 13 days
# Description: (§1) Seeds of a variety of test species are sown in standard soil in pots (Amaranthus retoflexus (AMARE), Solanum nigrum (SOLNI), Setaria faberi (SETFA), Lolium perenne (LOLPE), Echinochloa crus-galli (ECHCG), Ipomoea hederacea (IPOHE), Abutilon theophrasti (ABUTH), Zea mays (ZEAMX), Amaranthus palmeri (AMAPA). After 8 days cultivation under controlled conditions in a glasshouse (at 24° C./16° C., day/night; 14 hours light; 65% humidity), the plants are sprayed with an aqueous spray solution derived from the formulation of the technical active ingredient in acetone/water (50:50) solution containing 0.5% Tween 20 (polyoxyethelyene sorbitan monolaurate, CAS RN 9005-64-5). Compounds are applied at 1000 g/ha unless otherwise stated. The test plants are then grown in a glasshouse under controlled conditions in a glasshouse (at 24° C./16° C., day/night; 14 hours light; 65% humidity) and watered twice daily. After 13 days the test is evaluated for the percentage damage caused to the plant. The biological activities are shown in the following table on a five-point scale (5=81-100%; 4=61-80%; 3=41-60%; 2=21-40%; 1=0-20%).
# [2] = test system: Ipomoea hederacea (IPOHE); experiment: as above; conditions: post-emergence spray, 1000 g/ha unless otherwise stated, evaluated after 13 days
# Description: as §1
# Setaria faberi (SETFA) [3] = experiment: as above; conditions: post-emergence spray, 1000 g/ha unless otherwise stated, evaluated after 13 days
# Description: as §1
# Zea mays (ZEAMX) [4] = experiment: as above; conditions: post-emergence spray, 1000 g/ha unless otherwise stated, evaluated after 13 days
# Description: as §1
# [5] = test system: Amaranthus retoflexus (AMARE); experiment: Pre-emergence Test (glasshouse, percentage damage to the plant); conditions: 1000 g/ha unless otherwise stated, five-point scale
# Setaria faberi (SETFA) [6] = experiment: as above; conditions: 1000 g/ha unless otherwise stated, five-point scale
# [7] = test system: Echinochloa crus-galli (ECHCG); experiment: as above; conditions: 1000 g/ha unless otherwise stated, five-point scale
# [8] = test system: Ipomoea hederacea (IPOHE); experiment: as above; conditions: 1000 g/ha unless otherwise stated, five-point scale
# [9] = test system: Abutilon theophrasti (ABUTH); experiment: as above; conditions: 1000 g/ha unless otherwise stated, five-point scale
# Zea mays (ZEAMX) [10] = experiment: as above; conditions: 1000 g/ha unless otherwise stated, five-point scale
structure (smiles),measurement,setting,value
"CCn1c(C)c(-c2ccc(C(F)(F)F)cc2)c(=O)c(C(=O)O)c1-c1ccnc(Cl)c1 [Compound 140, 2-(2-chloro-4-pyridyl)-1-ethyl-6-methyl-4-oxo-5-[4-(trifluoromethyl)phenyl] pyridine-3-carboxylic acid]","Post-emergence Test AMARE, percentage damage to the plant (five-point scale)",[1],1 (1=0-20%)
same,"Post-emergence Test IPOHE, percentage damage to the plant (five-point scale)",[2],3 (3=41-60%)
same,"Post-emergence Test SETFA, percentage damage to the plant (five-point scale)",Setaria faberi (SETFA) [3],4 (4=61-80%)
same,"Post-emergence Test ZEAMX, percentage damage to the plant (five-point scale)",Zea mays (ZEAMX) [4],1 (1=0-20%)
same,"percentage damage to the plant, AMARE",[5],1 (1=0-20%)
same,"percentage damage to the plant, SETFA",Setaria faberi (SETFA) [6],2 (2=21-40%)
same,"percentage damage to the plant, ECHCG",[7],2 (2=21-40%)
same,"percentage damage to the plant, IPOHE",[8],1 (1=0-20%)
same,"percentage damage to the plant, ABUTH",[9],1 (1=0-20%)
same,"percentage damage to the plant, ZEAMX",Zea mays (ZEAMX) [10],0
"CCn1c(C)c(-c2cccc(C(F)(F)F)c2)c(=O)c(C(=O)O)c1-c1ccnc(Cl)c1 [Compound 145, 2-(2-chloro-4-pyridyl)-1-ethyl-6-methyl-4-oxo-5-[3-(trifluoromethyl)phenyl] pyridine-3-carboxylic acid]","Post-emergence Test AMARE, percentage damage to the plant (five-point scale)",[1],1 (1=0-20%)
same,"Post-emergence Test IPOHE, percentage damage to the plant (five-point scale)",[2],2 (2=21-40%)
same,"Post-emergence Test SETFA, percentage damage to the plant (five-point scale)",Setaria faberi (SETFA) [3],3 (3=41-60%)
same,"Post-emergence Test ZEAMX, percentage damage to the plant (five-point scale)",Zea mays (ZEAMX) [4],1 (1=0-20%)
same,"percentage damage to the plant, AMARE",[5],1 (1=0-20%)
same,"percentage damage to the plant, SETFA",Setaria faberi (SETFA) [6],3 (3=41-60%)
same,"percentage damage to the plant, ECHCG",[7],2 (2=21-40%)
same,"percentage damage to the plant, IPOHE",[8],0
same,"percentage damage to the plant, ABUTH",[9],1 (1=0-20%)
same,"percentage damage to the plant, ZEAMX",Zea mays (ZEAMX) [10],0
"CCn1c(-c2ccc(Cl)c(Cl)c2)c(C(=O)OC)c(=O)c(-c2ccc(Cl)cc2)c1C(F)(F)F [Compound 169, methyl 5-(4-chlorophenyl)-2-(3,4-dichlorophenyl)-1-ethyl-4-oxo-6-(trifluoromethyl) pyridine-3-carboxylate]","Post-emergence Test AMARE, percentage damage to the plant (five-point scale)",[1],1 (1=0-20%)
same,"Post-emergence Test IPOHE, percentage damage to the plant (five-point scale)",[2],0
same,"Post-emergence Test SETFA, percentage damage to the plant (five-point scale)",Setaria faberi (SETFA) [3],0
same,"Post-emergence Test ZEAMX, percentage damage to the plant (five-point scale)",Zea mays (ZEAMX) [4],1 (1=0-20%)
same,"percentage damage to the plant, AMARE",[5],0
same,"percentage damage to the plant, SETFA",Setaria faberi (SETFA) [6],0
same,"percentage damage to the plant, ECHCG",[7],0
same,"percentage damage to the plant, IPOHE",[8],0
same,"percentage damage to the plant, ABUTH",[9],0
same,"percentage damage to the plant, ZEAMX",Zea mays (ZEAMX) [10],0
"CCn1c(C)c(-c2ccc(C(F)(F)F)c(Cl)c2)c(=O)c(C(=O)O)c1-c1ccc(Cl)cc1 [Compound 170, 2-(4-chlorophenyl)-5-[3-chloro-4-(trifluoromethyl)phenyl]-1-ethyl-6-methyl-4-oxo-pyridine-3-carboxylic acid]","Post-emergence Test AMARE, percentage damage to the plant (five-point scale)",[1],5 (5=81-100%)
same,"Post-emergence Test IPOHE, percentage damage to the plant (five-point scale)",[2],3 (3=41-60%)
same,"Post-emergence Test SETFA, percentage damage to the plant (five-point scale)",Setaria faberi (SETFA) [3],1 (1=0-20%)
same,"Post-emergence Test ZEAMX, percentage damage to the plant (five-point scale)",Zea mays (ZEAMX) [4],2 (2=21-40%)
same,"percentage damage to the plant, AMARE",[5],1 (1=0-20%)
same,"percentage damage to the plant, SETFA",Setaria faberi (SETFA) [6],0
same,"percentage damage to the plant, ECHCG",[7],0
same,"percentage damage to the plant, IPOHE",[8],0
same,"percentage damage to the plant, ABUTH",[9],0
same,"percentage damage to the plant, ZEAMX",Zea mays (ZEAMX) [10],0
"CCn1c(C)c(-c2ccc(C(F)(F)F)c(Cl)c2)c(=O)c(C(=O)O)c1-c1ccc(Cl)cc1 [Compound 171, 2-(4-chlorophenyl)-5-[3-chloro-4-(trifluoromethyl)phenyl]-1-ethyl-6-methyl-4-oxo-pyridine-3-carboxylic acid]","Post-emergence Test AMARE, percentage damage to the plant (five-point scale)",[1],3 (3=41-60%)
same,"Post-emergence Test IPOHE, percentage damage to the plant (five-point scale)",[2],4 (4=61-80%)
same,"Post-emergence Test SETFA, percentage damage to the plant (five-point scale)",Setaria faberi (SETFA) [3],3 (3=41-60%)
same,"Post-emergence Test ZEAMX, percentage damage to the plant (five-point scale)",Zea mays (ZEAMX) [4],2 (2=21-40%)
same,"percentage damage to the plant, AMARE",[5],0
same,"percentage damage to the plant, SETFA",Setaria faberi (SETFA) [6],0
same,"percentage damage to the plant, ECHCG",[7],1 (1=0-20%)
same,"percentage damage to the plant, IPOHE",[8],1 (1=0-20%)
same,"percentage damage to the plant, ABUTH",[9],0
same,"percentage damage to the plant, ZEAMX",Zea mays (ZEAMX) [10],0
"CCn1c(C)c(-c2cccc(Cl)c2Cl)c(=O)c(C(=O)O)c1-c1ccc(Cl)cc1 [Compound 172, 2-(4-chlorophenyl)-5-(2,3-dichlorophenyl)-1-ethyl-6-methyl-4-oxo-pyridine-3-carboxylic acid]","Post-emergence Test AMARE, percentage damage to the plant (five-point scale)",[1],2 (2=21-40%)
same,"Post-emergence Test IPOHE, percentage damage to the plant (five-point scale)",[2],4 (4=61-80%)
same,"Post-emergence Test SETFA, percentage damage to the plant (five-point scale)",Setaria faberi (SETFA) [3],4 (4=61-80%)
same,"Post-emergence Test ZEAMX, percentage damage to the plant (five-point scale)",Zea mays (ZEAMX) [4],2 (2=21-40%)
same,"percentage damage to the plant, AMARE",[5],1 (1=0-20%)
same,"percentage damage to the plant, SETFA",Setaria faberi (SETFA) [6],3 (3=41-60%)
same,"percentage damage to the plant, ECHCG",[7],3 (3=41-60%)
same,"percentage damage to the plant, IPOHE",[8],1 (1=0-20%)
same,"percentage damage to the plant, ABUTH",[9],1 (1=0-20%)
same,"percentage damage to the plant, ZEAMX",Zea mays (ZEAMX) [10],0
"CCn1c(C)c(-c2cc(C(F)(F)F)ccc2F)c(=O)c(C(=O)O)c1-c1ccc(Cl)cc1 [Compound 177, 2-(4-chlorophenyl)-1-ethyl-5-[2-fluoro-5-(trifluoromethyl)phenyl]-6-methyl-4-oxo-pyridine-3-carboxylic acid]","Post-emergence Test AMARE, percentage damage to the plant (five-point scale)",[1],4 (4=61-80%)
same,"Post-emergence Test IPOHE, percentage damage to the plant (five-point scale)",[2],3 (3=41-60%)
same,"Post-emergence Test SETFA, percentage damage to the plant (five-point scale)",Setaria faberi (SETFA) [3],4 (4=61-80%)
same,"Post-emergence Test ZEAMX, percentage damage to the plant (five-point scale)",Zea mays (ZEAMX) [4],3 (3=41-60%)
same,"percentage damage to the plant, AMARE",[5],1 (1=0-20%)
same,"percentage damage to the plant, SETFA",Setaria faberi (SETFA) [6],2 (2=21-40%)
same,"percentage damage to the plant, ECHCG",[7],1 (1=0-20%)
same,"percentage damage to the plant, IPOHE",[8],3 (3=41-60%)
same,"percentage damage to the plant, ABUTH",[9],3 (3=41-60%)
same,"percentage damage to the plant, ZEAMX",Zea mays (ZEAMX) [10],0
"CCn1c(C)c(-c2cccc(C(F)(F)F)c2F)c(=O)c(C(=O)O)c1-c1ccc(Cl)cc1 [Compound 181, 2-(4-chlorophenyl)-1-ethyl-5-[2-fluoro-3-(trifluoromethyl)phenyl]-6-methyl-4-oxo-pyridine-3-carboxylic acid]","Post-emergence Test AMARE, percentage damage to the plant (five-point scale)",[1],3 (3=41-60%)
same,"Post-emergence Test IPOHE, percentage damage to the plant (five-point scale)",[2],2 (2=21-40%)
same,"Post-emergence Test SETFA, percentage damage to the plant (five-point scale)",Setaria faberi (SETFA) [3],3 (3=41-60%)
same,"Post-emergence Test ZEAMX, percentage damage to the plant (five-point scale)",Zea mays (ZEAMX) [4],1 (1=0-20%)
same,"percentage damage to the plant, AMARE",[5],1 (1=0-20%)
same,"percentage damage to the plant, SETFA",Setaria faberi (SETFA) [6],5 (5=81-100%)
same,"percentage damage to the plant, ECHCG",[7],4 (4=61-80%)
same,"percentage damage to the plant, IPOHE",[8],4 (4=61-80%)
same,"percentage damage to the plant, ABUTH",[9],4 (4=61-80%)
same,"percentage damage to the plant, ZEAMX",Zea mays (ZEAMX) [10],2 (2=21-40%)
"CCn1c(C)c(-c2cc(C(F)(F)F)ccc2Cl)c(=O)c(C(=O)O)c1-c1ccc(Cl)cc1 [Compound 183, 2-(4-chlorophenyl)-5-[2-chloro-5-(trifluoromethyl)phenyl]-1-ethyl-6-methyl-4-oxo-pyridine-3-carboxylic acid]","Post-emergence Test AMARE, percentage damage to the plant (five-point scale)",[1],3 (3=41-60%)
same,"Post-emergence Test IPOHE, percentage damage to the plant (five-point scale)",[2],3 (3=41-60%)
same,"Post-emergence Test SETFA, percentage damage to the plant (five-point scale)",Setaria faberi (SETFA) [3],2 (2=21-40%)
same,"Post-emergence Test ZEAMX, percentage damage to the plant (five-point scale)",Zea mays (ZEAMX) [4],3 (3=41-60%)
same,"percentage damage to the plant, AMARE",[5],0
same,"percentage damage to the plant, SETFA",Setaria faberi (SETFA) [6],0
same,"percentage damage to the plant, ECHCG",[7],0
same,"percentage damage to the plant, IPOHE",[8],0
same,"percentage damage to the plant, ABUTH",[9],0
same,"percentage damage to the plant, ZEAMX",Zea mays (ZEAMX) [10],0
